# Entries after “also recorded” stand apart in the source; their conditions may differ.
# Key:
# [1] = target: T1, androgen receptor (hAR) (Homo sapiens, UniProt P10275); test: Yeast assay, yeast androgen response (YAR), β-gal reporter; format: cell-based; conditions: summary statement, no concentration given
# T1 construct: expressed in transfected cells; host or cells: recombinant Saccharomyces cerevisiae (from Dr. Donald P. McDonnell, Duke University)
# T1 sequence (P10275 1-920): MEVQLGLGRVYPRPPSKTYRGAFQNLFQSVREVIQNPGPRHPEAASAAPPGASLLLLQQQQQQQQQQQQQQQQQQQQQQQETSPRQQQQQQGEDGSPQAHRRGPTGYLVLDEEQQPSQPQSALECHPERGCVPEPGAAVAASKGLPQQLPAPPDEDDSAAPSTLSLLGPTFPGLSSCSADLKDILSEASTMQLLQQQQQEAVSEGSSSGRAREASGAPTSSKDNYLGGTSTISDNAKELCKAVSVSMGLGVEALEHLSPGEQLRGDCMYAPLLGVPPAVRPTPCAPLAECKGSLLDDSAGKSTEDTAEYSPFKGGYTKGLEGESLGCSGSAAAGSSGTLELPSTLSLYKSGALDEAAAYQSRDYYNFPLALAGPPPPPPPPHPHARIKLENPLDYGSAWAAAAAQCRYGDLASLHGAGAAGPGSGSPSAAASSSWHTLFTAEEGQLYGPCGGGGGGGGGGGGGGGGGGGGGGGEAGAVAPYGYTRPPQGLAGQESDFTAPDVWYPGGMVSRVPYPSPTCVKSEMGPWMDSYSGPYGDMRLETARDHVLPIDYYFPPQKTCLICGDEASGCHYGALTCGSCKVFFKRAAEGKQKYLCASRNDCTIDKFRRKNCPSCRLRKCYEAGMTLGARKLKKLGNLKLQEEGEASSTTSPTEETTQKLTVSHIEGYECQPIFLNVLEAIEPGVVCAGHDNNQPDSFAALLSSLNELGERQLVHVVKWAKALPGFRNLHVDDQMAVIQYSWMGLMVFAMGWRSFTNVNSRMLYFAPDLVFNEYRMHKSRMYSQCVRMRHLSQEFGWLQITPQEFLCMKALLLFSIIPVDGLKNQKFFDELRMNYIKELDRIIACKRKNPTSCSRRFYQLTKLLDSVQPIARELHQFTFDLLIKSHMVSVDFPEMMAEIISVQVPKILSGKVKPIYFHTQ
# [2] = system: MCF-7 breast cancer cells; test: Inhibitory effect on MCF-7 cell line proliferation (DNA content, OD 260 nm); format: cell-based; conditions: for inhibition of proliferation of MCF-7 breast cancer cell line: 100 μg/ml; for inhibition of proliferation of cancer cells including breast cancer cells: summary statement, no concentration given
# Description: (§1) 5×10^4 cells/ml of MCF-7 cells (ATCC HTB-22) were placed in a 6-well culture plate and allowed to be attached for 24 hours. Phenol red-free D-medium supplemented with 5% fetal bovine serum (FBS) and 3 Ml/l PSN antibiotic mixture (Gibco, USA) was added thereto, followed by incubation in an incubator kept at 5% CO2, 95% air, 100% humidity, 37° C. for 24 hours. After incubation for 24 hours, the medium was removed and the cultured cells were incubated in phenol red-free D-medium supplemented with 5% DCC-FBS (dextran-coated charcoal-stripped FBS; […] During the incubation, the test media were changed once. After 72 hours, the cells were treated with 1 Ml of 0.1 N NaOH (Sigma Co.) and collected to examine DNA content with a spectrophotometer at OD 260 nm.
# [3] = system: bisphenol-A (BPA) activity in MCF-7 cells; test: Inhibitory effect on bisphenol-A (BPA) activity in MCF-7 cells; format: cell-based; conditions: summary statement, no concentration given
# Description: as §1, with “nm. Additionally, in order to examine if the Chinese licorice root extract can suppress activity of bisphenol-A (BPA), which is an endocrine disruptor having tumor-inducing activity, in the foregoing experiment, BPA was used instead of the Chinese licorice root extract or the Chinese licorice root extract and BPA were used simultaneously. […]” for “nm.”
# [4] = target: T2, human estrogen receptor (hER) (Homo sapiens, UniProt P03372); test: Yeast assay, yeast estrogen response (YER), β-gal reporter; format: cell-based; conditions: for estrogenicity: summary statement, no concentration given
# T2 construct: expressed in transfected cells; host or cells: Saccharomyces cerevisiae ER+LYS 8127 (from Dr. Donald P. McDonnell, Duke University)
# T2 sequence (P03372 1-595): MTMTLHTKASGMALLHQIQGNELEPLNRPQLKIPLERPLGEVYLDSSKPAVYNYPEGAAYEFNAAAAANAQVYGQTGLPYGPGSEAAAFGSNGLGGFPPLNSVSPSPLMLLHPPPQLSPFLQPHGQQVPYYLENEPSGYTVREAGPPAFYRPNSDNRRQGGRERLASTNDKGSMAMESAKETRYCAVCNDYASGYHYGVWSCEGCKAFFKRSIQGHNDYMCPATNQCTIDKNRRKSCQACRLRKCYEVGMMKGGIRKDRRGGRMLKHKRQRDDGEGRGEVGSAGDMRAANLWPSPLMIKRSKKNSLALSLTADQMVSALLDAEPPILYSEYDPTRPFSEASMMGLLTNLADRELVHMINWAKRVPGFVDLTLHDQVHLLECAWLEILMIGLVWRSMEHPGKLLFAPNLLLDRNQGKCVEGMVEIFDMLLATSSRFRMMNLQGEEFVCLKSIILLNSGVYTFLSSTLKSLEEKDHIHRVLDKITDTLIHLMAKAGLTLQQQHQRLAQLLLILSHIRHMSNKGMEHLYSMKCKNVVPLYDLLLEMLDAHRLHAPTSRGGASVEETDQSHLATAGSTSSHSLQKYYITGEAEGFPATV
# Description: Saccharomyces cerevisiae ER+[…], supplied by Dr. Donald P. […] The cultured yeasts were diluted in a medium to a proper concentration and 500 μM of CuSO4 (Sigma, USA) was added thereto. The diluted yeasts were then aliquoted into a 50 Ml tube at a proper level. […] Control group was treated with dimethyl sulfoxide (Sigma, USA). […] The experimental groups and control groups treated with the respective materials were then cultured for 18 hours in a shaking incubator (200 rpm). […] To each well, 100 μl of a Z buffer containing 2 mg/Ml o-nitrophenyl -β-D-galactopyranoside (Sigma, USA), 0.1% lauryl sulfate (Sigma, USA), 50 mM β-mercaptoethanol (BDH chemical LTD, England) and 200 U/Ml oxalyticase (Enzogenetics, USA) was added. After 20 minutes, the coloration was examined using a microplate reader at a wavelength of 420 nm. All the data were analyzed by ANOVA using the statistical program SAS and Dunnett's t-test was performed at significance level P<0.05.
# [5] = system: uterus and vagina of immature Sprague-Dawley rats; test: Immature uterotrophic assay; format: in vivo; conditions: BPA 40 mg/ml/100 g s.c. 3 days, compared to non-treated control group
# Description: 40 immature Sprague-Dawley rats, aged 18 days, were kept in a breeding environment of a temperature of 22±3° C., a relative humidity of 50±10%, a ventilation frequency of 10 to 12 times/hr, light time of 12 hours, an illumination intensity of 150 to 200 lux while being supplied with AIN-76A diet (per 1 kg, thiamine HCI 0.6 g, riboflavin 0.6 g, pyridoxine HCI 0.7 g, […] 3.0 g, calcium pantothenate 1.6 g, folic acid 0.2 g, biotin 0.02 g, Vitamin B12 (0.1%) 1.0 g, Vitamin A palmitate (500,000 IU/g) 0.8 g, Vitamin D3 (400,000 IU/g) 0.25 g, Vitamin E acetate (500 IU/g) 10.0 g, menadion sodium bisulfite 0.08 g, fine powdery sucrose 981.15 g). Each rat was subcutaneously administered once daily with bisphenol A (40 mg/ml/100 g body weight) and the Chinese licorice root EtOH extract (10 mg or 50 mg/ml/100 g body weight) suspended in corn oil for 3 days. 24 hours after the last administration day, the animals were killed by cervical dislocation. […] In particular, the height of the luminal epithelium of the uterus lumen was measured and the luminal epithelium of the vagina was carefully observed. For statistical analysis of data with respect to body weight of test animals and the like which had been measured in the experiment, one-way ANOVA was performed to inspect significance between groups at p=0.05 level. […]
Compound,androgenicity [1],inhibition of proliferation of MCF-7 breast cancer cell line [2],inhibition of proliferation of cancer cells including breast cancer cells [2],suppression of the activity of bisphenol-A [3],estrogenicity [4],"inhibitory effect on proliferation of breast cancer cells (MCF-7) ([2]; 300 μg/ml, FIG. 5)","estrogenicity (estrogen response, ER) ([4]; 10 μg/ml and 100 μg/ml, compared with positive control 10^−9 M estradiol, FIG. 2b)","concentration showing the highest estrogenicity ([4]; tested at 10 μg/ml and 100 μg/ml, FIG. 2b)","effect on proliferation of MCF-7 cells ([2]; 16 μg/ml, pretest)",thickness of uterine epithelial cells ([5]; FIG. 14),thickness of vagina epithelial cells ([5]; FIG. 15)
Liquiritin,do not show androgenicity,inhibited proliferation,inhibit proliferation of cancer cells,suppress the activity of bisphenol-A,show estrogenicity,–,–,–,–,–,–
"O=C(/C=C/c1ccc(O[C@@H]2O[C@H](CO)[C@@H](O)[C@H](O)[C@H]2O)cc1)c1ccc(O)cc1O [isoliquiritin, Isoliquiritin]",do not show androgenicity,inhibited proliferation; also recorded: no significant proliferation of breast cancer cells was observed,inhibit proliferation of cancer cells,suppress the activity of bisphenol-A,show estrogenicity,excellent inhibitory effect,higher than that of the positive control estradiol,10 µg/mL,–,–,–
"CC(C)(c1ccc(O)cc1)c1ccc(O)cc1 [BPA, bisphenol-A]",–,–,–,–,–,–,–,–,showed the highest effect on proliferation,increased,increased

# Reference: patent US20070134353A1, “PHYTOESTROGENIC COMPOSITION COMPRISING AN EXTRACT OF CHINESE LICORICE ROOT, ISOLIQUIRITIN OR LIQUIRITIN” (priority 2004, published 2007)
